Active and inactive are the calls of the source. No cut-off for these calls is given here.
What was measured:
[1] = Half life in Sprague-Dawley rat at 10 mg/kg, po measured upto 24 hrs by LC-MS analysis; assay type: ADME, organism-based; settings: in vivo
[2] = system: Mus musculus; test: Antiinflammatory activity against DSS-induced acute colitis C57BL/6 mouse model assessed as reduction in IL-6 level in serum at 5 mg/kg, po pretreated with DSS for 7 days followed by compound addition for every day for 10 days by ELISA analysis; assay type: functional, organism-based; settings: time 10.0 day
[3] = Oral bioavailability in Sprague-Dawley rat at 10 mg/kg measured upto 24 hrs by LC-MS analysis; assay type: ADME, organism-based; settings: in vivo
[4] = system: J774.A1; test: Antiinflammatory activity against LPS-induced mouse J774.A1 cells assessed as downregulation of p65 level at 20 uM incubated for 2 hrs by Western blot analysis; assay type: functional, cell-based
[5] = Apparent volume of distribution in Sprague-Dawley rat at 10 mg/kg, po measured upto 24 hrs by LC-MS analysis; assay type: ADME, organism-based; settings: in vivo
[6] = Cmax in Sprague-Dawley rat at 1 mg/kg, iv measured upto 24 hrs by LC-MS analysis; assay type: ADME, organism-based; settings: in vivo
[7] = Cmax in Sprague-Dawley rat at 10 mg/kg, po measured upto 24 hrs by LC-MS analysis; assay type: ADME, organism-based; settings: in vivo
[8] = AUC (0 to infinity) in Sprague-Dawley rat at 1 mg/kg, iv measured upto 24 hrs by LC-MS analysis; assay type: ADME, organism-based; settings: in vivo
[9] = system: Mus musculus; test: Antiinflammatory activity against DSS-induced acute colitis C57BL/6 mouse model assessed as attenuation of white pulp at 5 mg/kg, po pretreated with DSS for 7 days followed by compound addition for every day for 10 days by H and E staining based analysis; assay type: functional, organism-based; settings: time 10.0 day
[10] = AUC (0 to t) in Sprague-Dawley rat at 10 mg/kg, po measured upto 24 hrs by LC-MS analysis; assay type: ADME, organism-based; settings: in vivo
[11] = MRT (0 to t) in Sprague-Dawley rat at 1 mg/kg, iv measured upto 24 hrs by LC-MS analysis; assay type: ADME, organism-based; settings: in vivo
[12] = Half life in Sprague-Dawley rat at 1 mg/kg, iv measured upto 24 hrs by LC-MS analysis; assay type: ADME, organism-based; settings: in vivo
[13] = system: Mus musculus; test: Antiinflammatory activity against LPS-induced acute lung injury C57BL/6 mouse model assessed as lung tissue destruction at 20 mg/kg, IG preincubated with compound for 30 mins followed by LPS-induction and measured after 6 hrs by H and E staining based analysis; assay type: functional, organism-based; settings: time 390.0 min
[14] = system: Mus musculus; test: Antiinflammatory activity against LPS-induced acute lung injury C57BL/6 mouse model assessed as reduction in protein concentration in BALF at 20 mg/kg, IG preincubated with compound for 30 mins followed by LPS-induction and measured after 6 hrs; assay type: functional, organism-based; settings: time 390.0 min
[15] = system: Mus musculus; test: Antiinflammatory activity against DSS-induced acute colitis C57BL/6 mouse model assessed as reduction in mucosal damage in colon at 5 mg/kg, po pretreated with DSS for 7 days followed by compound addition for every day for 10 days by H and E staining based analysis; assay type: functional, organism-based; settings: time 10.0 day
[16] = system: Mus musculus; test: Antiinflammatory activity against LPS-induced acute lung injury C57BL/6 mouse model assessed as suppression of IL-6 level in serum at 20 mg/kg, IG preincubated with compound for 30 mins followed by LPS-induction and measured after 6 hrs by ELISA analysis; assay type: functional, organism-based; settings: time 390.0 min
[17] = system: Mus musculus; test: Antiinflammatory activity against LPS-induced acute lung injury C57BL/6 mouse model assessed as inflammatory infiltration in lung at 20 mg/kg, IG preincubated with compound for 30 mins followed by LPS-induction and measured after 6 hrs by H and E staining based analysis; assay type: functional, organism-based; settings: time 390.0 min
[18] = MRT (0 to t) in Sprague-Dawley rat at 10 mg/kg, po measured upto 24 hrs by LC-MS analysis; assay type: ADME, organism-based; settings: in vivo
[19] = system: Mus musculus; test: Antiinflammatory activity against DSS-induced acute colitis C57BL/6 mouse model assessed as reduction in splenomegaly at 5 mg/kg, po pretreated with DSS for 7 days followed by compound addition for every day for 10 days; assay type: functional, organism-based; settings: time 10.0 day
[20] = system: J774.A1; test: Antiinflammatory activity against mouse J774.A1 cells assessed as inhibition of LPS-induced TNF-alpha production pretreated with compound for 30 mins followed by LPS induction and measured after 24 hrs by ELISA analysis; assay type: functional; settings: time 1470 min; 24.5 h
[21] = system: Mus musculus; test: Antiinflammatory activity against DSS-induced acute colitis C57BL/6 mouse model assessed as reduction in inflammatory infiltration in colon at 5 mg/kg, po pretreated with DSS for 7 days followed by compound addition for every day for 10 days by H and E staining based analysis; assay type: functional, organism-based; settings: time 10.0 day
[22] = Clearance in Sprague-Dawley rat at 10 mg/kg, po measured upto 24 hrs by LC-MS analysis; assay type: ADME, organism-based; settings: in vivo
[23] = system: J774.A1; test: Antiinflammatory activity against LPS-induced mouse J774.A1 cells assessed as downregulation of TNF-alpha mRNA level preincubated with compound for 30 mins followed by LPS-induction and measured after 6 hrs by qPCR analysis; assay type: functional, cell-based; settings: time 390.0 min
[24] = system: J774.A1; test: Antiinflammatory activity against mouse J774.A1 cells assessed as inhibition of LPS-induced IL-6 release preincubated with compound for 30 mins followed by LPS-induction and measured after 24 hrs by ELISA analysis; assay type: functional, cell-based
[25] = system: Mus musculus; test: Antiinflammatory activity against LPS-induced acute lung injury C57BL/6 mouse model assessed as reduction in pulmonary edema by measuring lung wet to dry ratio at 20 mg/kg, IG pretreated with compound for 30 mins followed by LPS-induction and measured after 6 hrs; assay type: functional, organism-based; settings: time 390.0 min
[26] = system: J774.A1; test: Antiinflammatory activity against LPS-induced mouse J774.A1 cells assessed as increase in IkappaB-alpha level at 20 uM incubated for 2 hrs by Western blot analysis; assay type: functional, cell-based
[27] = AUC (0 to t) in Sprague-Dawley rat at 1 mg/kg, iv measured upto 24 hrs by LC-MS analysis; assay type: ADME, organism-based; settings: in vivo
[28] = system: Mus musculus; test: Antiinflammatory activity against LPS-induced acute lung injury C57BL/6 mouse model assessed as decrease in TNF-alpha mRNA level in lung at 20 mg/kg, IG preincubated with compound for 30 mins followed by LPS-induction and measured after 6 hrs by qPCR analysis; assay type: functional, organism-based; settings: time 390.0 min
[29] = system: Mus musculus; test: Antiinflammatory activity against LPS-induced acute lung injury C57BL/6 mouse model assessed as suppression of TNF-alpha level in serum at 20 mg/kg, IG preincubated with compound for 30 mins followed by LPS-induction and measured after 6 hrs by ELISA analysis; assay type: functional, organism-based; settings: time 390.0 min
[30] = system: J774.A1; test: Antiinflammatory activity against mouse J774.A1 cells assessed as inhibition of LPS-induced IL-6 production pretreated with compound for 30 mins followed by LPS induction and measured after 24 hrs by ELISA analysis; assay type: functional; settings: time 1470 min; 24.5 h
[31] = system: Mus musculus; test: Antiinflammatory activity against DSS-induced acute colitis C57BL/6 mouse model assessed as increase in colon length at 5 mg/kg, po pretreated with DSS for 7 days followed by compound addition for every day for 10 days; assay type: functional, organism-based; settings: time 10.0 day
[32] = AUC (0 to infinity) in Sprague-Dawley rat at 10 mg/kg, po measured upto 24 hrs by LC-MS analysis; assay type: ADME, organism-based; settings: in vivo
[33] = Clearance in Sprague-Dawley rat at 1 mg/kg, iv measured upto 24 hrs by LC-MS analysis; assay type: ADME, organism-based; settings: in vivo
[34] = system: Mus musculus; test: Antiinflammatory activity against LPS-induced acute lung injury C57BL/6 mouse model assessed as alveolar septa thickness in lung at 20 mg/kg, IG preincubated with compound for 30 mins followed by LPS-induction and measured after 6 hrs by H and E staining based analysis; assay type: functional, organism-based; settings: time 390.0 min
[35] = Tmax in Sprague-Dawley rat at 1 mg/kg, iv measured upto 24 hrs by LC-MS analysis; assay type: ADME, organism-based; settings: in vivo

For `O=[N+]([O-])c1ccc(N2CCN(c3ccc(S(=O)(=O)NCc4ccccn4)cc3[N+](=O)[O-])CC2)cc1`, the half-life [1] was 7.1 h, the Activity [2] was “Active” and the bioavailability [3] was 10.6%. The Activity [4] was “Active”, the Vz [5] was 80 L/kg and the Cmax [6] was 1320 ng/mL. The Cmax [7] was 168 ng/mL, the AUC(0-inf) [8] was 1120 ng·h/mL and the Activity [9] was “Active”. For the same compound, the AUC(0-t) at 24 h [10] was 1060 ng·h/mL, the MRT last at 24 h [11] was 1.1 h and the half-life [12] was 1.8 h. For the same compound, the Activity [13] was “Active”, the Activity [14] was “Active” and the Activity [15] was “Active”. The Activity [16] was “Active”, the Activity [17] was “Active” and the MRT last at 24 h [18] was 7.2 h. For the same compound, the Activity [19] was “Active”, the “inhibition (INH)” value [20] was 70.09% and the Activity [21] was “Active”. For the same compound, the clearance [22] was 150 mL/min/kg, the Activity [23] was “Active” and the IC50 [24] was 610 nM. The Activity [25] was “Active”, the Activity [26] was “Active” and the AUC(0-t) at 24 h [27] was 1110 ng·h/mL. For the same compound, the Activity [28] was “Active”, the Activity [29] was “Active” and the “inhibition (INH)” value [30] was 85.92%. For the same compound, the Activity [31] was “Active”, the AUC [32] was 1183.5 ng·h/mL and the clearance [33] was 15 mL/min/kg. The Activity [34] was “Active” and the Tmax [35] was 8.4 min.

Source: ChEMBL document CHEMBL5625228, “Design, synthesis, and bioactivity evaluation of novel amide/sulfonamide derivatives as potential anti-inflammatory agents against acute lung injury and ulcerative colitis” (Eur J Med Chem, 2023)
